Laboratory results from paper PMC9773825.

Test: not told

log partition chloroform / water/buffer (pH 3.5, 25): 1.14 log10
log partition octanol / water/buffer (pH 3.5, 25): −0.30 log10
log partition chloroform / water/buffer (pH 5.5, 25): 1.48 log10
log partition octanol / water/buffer (pH 5.5, 25): −0.16 log10
log partition chloroform / water/buffer (pH 7.4, 25): 1.46 log10
log partition octanol / water/buffer (pH 7.4, 25): −0.26 log10
SMILES: CON(C)Cc1ccc(O)c2c1CC1CC3C(N(C)C)C(O)=C(C(N)=O)C(=O)C3(O)C(O)=C1C2=O (stereo not drawn)
